Here are results for 99 compounds from the RepoRT retention time repository (doi:10.1016/j.jhazmat.2019.121712).

Structures are written as SMILES.

A short description of this data set: Thermo Scientific Acclaim RSLC 120 C18, 100 × 2.1 mm, 2.2 µm, 30 °C; A: 90% water + 10% methanol + 0.01% formic acid + 5 mM ammonium formate; B: methanol + 0.01% formic acid + 5 mM ammonium formate; gradient (min/%B) 0.1/1 3/39 14/99.9 16/99.9. The note with it: stereoisomer not certain.
For the compound `CC(C)(C)C(O)C(Oc1ccc(-c2ccccc2)cc1)n1cncn1` (centres undefined), the LC retention time came to 11.3 min.

On to `COc1ccc2c3c([nH]c2c1)C(C)=NCC3`, for which the LC retention time was 5.06 min.

As to `CNC(=O)Oc1cccc(C)c1`, the LC retention time was found to be 6.59 min.

Regarding `CSC1=NC(C)(c2ccccc2)C(=O)N1Nc1ccccc1` (centres undefined), the LC retention time turned out to be 9.22 min.

Take `CCOP(=S)(OCC)SCSP(=S)(OCC)OCC`: the LC retention time amounted to 12.4 min.

Take `CC(O)(C(N)=O)c1ccccc1` (centres undefined): the LC retention time was 12.9 min.

With `CC(O)CCn1cc(C(=O)c2cccc3ccccc23)c2ccccc21` (centres undefined), the LC retention time amounted to 9.91 min.

As to `CCOC(=O)C(CCc1ccccc1)NC(C)C(=O)N1Cc2ccccc2CC1C(=O)O` (centres undefined), the LC retention time came to 9.03 min.

On to `COc1ccccc1OCCNCC(O)COc1cccc2[nH]c3ccccc3c12` (centres undefined), for which the LC retention time was found to be 6.91 min.

Turning to `COCCCOc1cc(CC(CC(N)C(O)CC(C(=O)NCC(C)(C)C(N)=O)C(C)C)C(C)C)ccc1OC` (centres undefined), the LC retention time amounted to 8.87 min.

In the case of `CCCC(C)(COC(N)=O)COC(N)=O`, the LC retention time came out at 5.94 min.

On to `COc1ccc2c3c1OC1C(=O)CCC4(O)C(C2)N(C)CCC314` (centres undefined), for which the LC retention time amounted to 3.61 min.

For `C=C1CC(=CC)C(=O)OC2CC[N+]3([O-])CC=C(COC(=O)C1(C)O)C23` (centres undefined), the LC retention time was 4.5 min.

`CCOc1ccccc1OC(c1ccccc1)C1CNCCO1` (centres undefined): the LC retention time came to 7.28 min.

For `CCN(CC)CCNC(=O)c1ccc(N)cc1`, the LC retention time is 2.83 min.

`NC(=O)c1ncn(C2OC(CO)C(O)C2O)n1` (centres undefined): the LC retention time stood at 1.36 min.

`Cc1ccnc(NS(=O)(=O)c2ccc(N)cc2)n1`: the LC retention time worked out at 3.95 min.

In the case of `OCc1cc(C(O)CNCCCCCCOCCCCc2ccccc2)ccc1O` (centres undefined), the LC retention time was 8.83 min.

`COc1ccc2c3c1OC1C(O)C=CC4C(C2)NCCC341` (centres undefined): the LC retention time came out at 3.5 min.

Consider `CCN(CC)C(=O)C1C=C2c3cccc4c3C(O)(CC2N(C)C1)C(=O)N4` (centres undefined), for which the LC retention time came out at 4.23 min.

As for `O=C1CC2(CCCC2)CC(=O)N1CCCCN1CCN(c2ncccn2)CC1`, the LC retention time worked out at 5.78 min.

Regarding `CN1C(C(=O)Nc2ccccn2)=C(O)c2ccccc2S1(=O)=O`, the LC retention time stood at 6.84 min.

As to `Nc1nc(N)nc(N)n1`, the LC retention time was determined as 1.45 min.

`CCS(=O)Cc1ccccc1OC(=O)NC` (centres undefined): the LC retention time was 4.7 min.

Consider `CCCCCCCCCCCC(CC1OC(=O)C1CCCCCC)OC(=O)C(CC(C)C)NC=O` (centres undefined), for which the LC retention time is 14.6 min.

With `COC(=O)C(NC(=O)c1cn(CC2CCCCC2)c2ccccc12)C(C)(C)C` (centres undefined), the LC retention time was 12.4 min.

As to `CN(C)CC(CN1c2ccccc2Sc2ccccc21)N(C)C` (centres undefined), the LC retention time was determined as 8.54 min.

`CCC1C2CC3C4N(C)c5ccccc5C45CC(C2C5O)N3C1O` (centres undefined): the LC retention time came out at 5.19 min.

Consider `c1coc(-c2nc3ccccc3[nH]2)c1`, for which the LC retention time amounted to 6.48 min.

`CC1CC2C(C(O)CC3(C)C2CCC3(O)C(=O)CO)C2(C)C=CC(=O)C=C12` (centres undefined): the LC retention time turned out to be 8.75 min.

Take `O=C(c1cccc2ccccc12)c1cn(CCCCO)c2ccccc12`: the LC retention time stood at 9.56 min.

With `CC(=O)Nc1ccc(O)cc1`, the LC retention time is 3.48 min.

With `NC1CC1c1ccccc1` (centres undefined), the LC retention time was 4.27 min.

On to `CCc1cc(OC)c(CCN)cc1OC`, for which the LC retention time was 6.48 min.

As to `CCCCN1CCCCC1C(=O)Nc1c(C)cccc1C` (centres undefined), the LC retention time was 6.18 min.

In the case of `CNCCC(Oc1ccccc1C)c1ccccc1` (centres undefined), the LC retention time was 7.63 min.

With `CNCC(c1ccc(OC)cc1)C1(O)CCCCC1` (centres undefined), the LC retention time was 6.18 min.

For the compound `CCCCCn1cc(C(=O)C23CC4CC(CC(C4)C2)C3)c2ccccc21`, the LC retention time was 13.7 min.

`CN(C)CCc1c[nH]c2ccc(CC3COC(=O)N3)cc12` (centres undefined): the LC retention time turned out to be 3.61 min.

As for `CC(C)c1ccc(NC(=O)N(C)C)cc1`, the LC retention time came out at 8.32 min.

As to `CN(C)S(=O)(=O)c1ccc2c(c1)N(CCCN1CCC(CCO)CC1)c1ccccc1S2`, the LC retention time is 7.39 min.

With `COc1ccc2cccc(CCNC(C)=O)c2c1`, the LC retention time was found to be 8.68 min.

Turning to `COCCc1ccc(OCC(O)CNC(C)C)cc1` (centres undefined), the LC retention time was determined as 4.93 min.

Take `CC12CCC3C4CCC(=O)C=C4CCC3C1CCC2OC(=O)CCc1ccccc1` (centres undefined): the LC retention time is 13.6 min.

Turning to `CP(=O)(O)CCC(N)C(=O)O` (centres undefined), the LC retention time came to 1.44 min.

As for `CCCc1nn(C)c2c(=O)[nH]c(-c3cc(C(=O)CN4CCN(CC=Cc5ccccc5)CC4)ccc3OCC)nc12`, the LC retention time is 9.28 min.

With `CC(C)NCC(O)COc1cccc2[nH]c3ccccc3c12` (centres undefined), the LC retention time turned out to be 5.49 min.

As for `CCOP(=S)(OCC)SCCSCC`, the LC retention time came to 11.5 min.

As for `Cc1ccc(C(=O)C(C)N2CCCC2)cc1` (centres undefined), the LC retention time turned out to be 4.76 min.

For `CC(=O)Nc1ccc(S(=O)(=O)Nc2nc(C)cc(C)n2)cc1`, the LC retention time was 4.59 min.

Consider `C=CCc1ccccc1OCC(O)CNC(C)C` (centres undefined), for which the LC retention time was found to be 6.71 min.

As to `CN(C)c1ccccc1`, the LC retention time is 6.26 min.

As to `CC(=O)c1ccc(S(=O)(=O)NC(=O)NC2CCCCC2)cc1`, the LC retention time is 7.72 min.

For the compound `CCNP(=S)(OC)OC(C)=CC(=O)OC(C)C` (centres undefined), the LC retention time came to 9.79 min.

Consider `COC(=O)Nc1cccc(OC(=O)Nc2cccc(C)c2)c1`, for which the LC retention time was found to be 8.75 min.

Take `CCCCN(CC)C(=O)SCCC`: the LC retention time is 11.5 min.

Regarding `CCc1nnc(NS(=O)(=O)c2ccc(N)cc2)s1`, the LC retention time is 4.81 min.

`CNC(=C[N+](=O)[O-])NCCSCc1ccc(CN(C)C)o1`: the LC retention time came out at 3.14 min.

Take `Cc1cccc(CC(C)N)c1` (centres undefined): the LC retention time is 5.17 min.

`COc1cc2c(cc1OC)C(=O)C(CC1CCN(Cc3ccccc3)CC1)C2` (centres undefined): the LC retention time was determined as 5.81 min.

On to `O=C1N=CCC=N1`, for which the LC retention time is 4.49 min.

For `CC(=O)Nc1nnc(S(N)(=O)=O)s1`, the LC retention time was determined as 3.43 min.

For `CNCCC=C1c2ccccc2COc2ccccc21`, the LC retention time was 7.03 min.

Regarding `CCCCCn1cc(C(=O)Cc2ccccc2OC)c2ccccc21`, the LC retention time came to 11.8 min.

Turning to `O=C(O)C(c1ccccc1)C1CCCCN1` (centres undefined), the LC retention time was 4.61 min.

With `CCCCOc1ccc(C(=O)OCCN(CC)CC)cc1`, the LC retention time was found to be 11.3 min.

Consider `CC(C)NCC(O)COc1ccc(COCCOC(C)C)cc1` (centres undefined), for which the LC retention time was found to be 5.91 min.

Turning to `COc1ccc2c3c1OC1C(OC(C)=O)=CCC4C(C2)N(C)CCC314` (centres undefined), the LC retention time amounted to 4.47 min.

Consider `CCSc1cc(OC)c(CCN)cc1OC`, for which the LC retention time turned out to be 5.88 min.

On to `CCC(CC)COC(C(=O)OCCN(C)C)(c1ccccc1)c1ccccc1`, for which the LC retention time stood at 11.6 min.

In the case of `CCCN(CC)CC1COC2(CCC(C(C)(C)C)CC2)O1` (centres undefined), the LC retention time is 9.32 min.

With `Cc1cc2n[nH]nc2cc1C`, the LC retention time came to 6.76 min.

With `CN(C)C(CCOc1cccc2ccccc12)c1ccccc1` (centres undefined), the LC retention time turned out to be 8.34 min.

Turning to `Cc1cc(C)cc(C(=O)N(NC(=O)c2ccc3c(c2C)CCCO3)C(C)(C)C)c1`, the LC retention time was 9.93 min.

`COC(=O)c1ccccc1C(=O)OC`: the LC retention time is 6.63 min.

Turning to `CN(C)CCCN1c2ccccc2Sc2ccccc21`, the LC retention time turned out to be 7.69 min.

In the case of `CNCC(O)c1cccc(NS(C)(=O)=O)c1` (centres undefined), the LC retention time was 2.54 min.

In the case of `CC(=O)c1cc2cccc(OCC(O)CNC(C)C)c2o1` (centres undefined), the LC retention time came to 4.93 min.

Turning to `CCCCCn1cc(C(=O)CC(C)(C)C(C)(C)O)c2ccccc21`, the LC retention time amounted to 11.6 min.

On to `CCC(CC)Nc1c([N+](=O)[O-])cc(C)c(C)c1[N+](=O)[O-]`, for which the LC retention time turned out to be 12.8 min.

`COC(=O)C1C2CCC(CC1OC(=O)c1ccccc1)N2` (centres undefined): the LC retention time was 5.15 min.

As for `COc1ccc2c3c1OC1C(O)CCC4C(C2)N(C)CCC341` (centres undefined), the LC retention time turned out to be 3.36 min.

With `CCCCn1cc(C(=O)c2cccc3ccccc23)c2ccccc21`, the LC retention time was found to be 11.9 min.

Regarding `C=CCN1CCC23c4c5ccc(O)c4OC2C(=O)CCC3(O)C1C5` (centres undefined), the LC retention time was 3.44 min.

As for `CCN(CC)C(=O)C(C#N)=Cc1cc(O)c(O)c([N+](=O)[O-])c1`, the LC retention time was 6.89 min.

`COc1cc(CNC(=O)CCCCC=CC(C)C)ccc1O`: the LC retention time was found to be 9.83 min.

Consider `CC(=O)Nc1ccc(-c2ccc(C=NN3CC(=O)NC3=O)o2)cc1`, for which the LC retention time amounted to 5.67 min.

For the compound `CC(Cc1ccccc1)NCCC#N` (centres undefined), the LC retention time is 4.14 min.

In the case of `CCOP(=O)(SC(C)CC)SC(C)CC` (centres undefined), the LC retention time turned out to be 11.5 min.

In the case of `CNCCCN1c2ccccc2CCc2ccccc21`, the LC retention time was determined as 8.08 min.

`CCOP(=S)(OCC)Oc1ccc([N+](=O)[O-])cc1`: the LC retention time was found to be 10.7 min.

For the compound `CN1CCCCC1Cn1cc(C(=O)C23CC4CC(CC(C4)C2)C3)c2ccccc21` (centres undefined), the LC retention time is 9.94 min.

With `CNC(=O)Nc1nc2ccccc2s1`, the LC retention time was 7.13 min.

As to `CON=C(C(=O)NC1C(=O)N2C(C(=O)O)=C(CSC(=O)c3ccco3)CSC12)c1csc(N)n1` (centres undefined), the LC retention time is 5.44 min.

Take `Cc1ccc(C(=CCN2CCCC2)c2cccc(C=CC(=O)O)n2)cc1`: the LC retention time amounted to 6.66 min.

Turning to `CC12CCC(=O)C=C1C=CC1C2CCC2(C)C1CCC21CCC(=O)O1` (centres undefined), the LC retention time amounted to 9.77 min.

Consider `COC1CC(OC2C(C)OC(OC3C(C)=CCC4CC(CC5(C=CC(C)C(C(C)C)O5)O4)OC(=O)C4C=C(C)C(O)C5OCC(=CC=CC3C)C45O)CC2OC)OC(C)C1O` (centres undefined), for which the LC retention time came to 13.4 min.

For `CCC(=C(c1ccccc1)c1ccc(OCCN(C)C)cc1)c1ccccc1`, the LC retention time came to 11 min.

Consider `NC(N)=NS(=O)(=O)c1ccc(N)cc1`, for which the LC retention time was 1.93 min.
